PubChem BioAssay AID2695 (Broad Institute, 2010)
Converted amounts (≈) assume the structure as drawn. Results filed as inconclusive are left out. The source made the active and inactive calls.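 How the source made its calls: active means a dose response, with MIC, the lowest growth-blocking dose, below the top tested dose; inconclusive means replicates split around the top dose, or self-fluorescent without titration; inactive means MIC above the top tested dose.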

test system: C. albicans SC5314 growth, alamar blue fluorescence; test: C. albicans growth inhibition, dose response, SC5314, Alamar Blue fluorescence (AID 2695); conditions: 6.5 h

Row | Structure (SMILES) | MIC
1 | COc1cc(/C=C2/SC(=S)N(Cc3ccccc3)C2=O)cc(OC)c1O | 17.5 µM (≈ 6.78 µg/mL)
2 | Cc1ccc(Nc2c(-c3ccc(C)o3)nc3ncccn23)cc1 | > 33 µM (inactive)
3 | COc1cc(/C=C2/CC/C(=C/c3ccc(O)c(OC)c3)C2=O)ccc1O | > 33 µM (inactive)
4 | O=C(Oc1c(-c2ccccc2)c(=O)n2c3c(cccc13)CC2)c1cccc([N+](=O)[O-])c1 | > 33 µM (inactive)
5 | N#C/C(=C/c1ccc([N+](=O)[O-])o1)c1nc2ccccc2[nH]1 | 4.1 µM (≈ 1.15 µg/mL)
6 | Cc1ccc2nc(/C(C#N)=C/c3ccc([N+](=O)[O-])o3)[nH]c2c1 | 2.1 µM (≈ 0.618 µg/mL)
7 | O=C(COC(=O)Cc1ccc(S(=O)(=O)N2CCOCC2)s1)NCc1ccc(Cl)cc1 | > 33 µM (inactive)
8 | N#CC1(C#N)C2=C(CCCC2)NC(c2ccccc2)C1(C#N)C#N (stereo unspecified) | > 33 µM (inactive)
9 | COc1cc(/C=C2\SC(=S)N(NC(=O)c3ccncc3)C2=O)ccc1O | > 33 µM (inactive)
10 | CC(=O)c1ccc(Sc2ccccc2)c([N+](=O)[O-])c1 | 16.6 µM (≈ 4.54 µg/mL)
11 | CCOc1cc(/C=C2\N=C(SC(C)C(N)=O)N(c3ccc(OC(F)F)cc3)C2=O)ccc1O (stereo unspecified) | > 33 µM (inactive)

Further lines, results first:

Row | MIC | Structure (SMILES)
12 | 16.6 µM (≈ 5.35 µg/mL) | Cc1ccc(C(=O)c2no[n+]([O-])c2C(=O)c2ccc(C)cc2)cc1
13 | > 33 µM (inactive) | Nc1ncnc2c1ncn2C1OC(CO)CC1O (stereo unspecified)
14 | > 33 µM (inactive) | Cc1ccc(-c2nn3c(C)nnc3s2)cc1NC(=O)CSc1ccc(Cl)cc1
15 | > 33 µM (inactive) | COc1cc(/C=C2\SC(=S)N(NC(=O)c3cccnc3)C2=O)ccc1O
16 | > 33 µM (inactive) | O=C(O)CN1C(=O)/C(=C\c2ccc(N3CCCCC3)o2)SC1=S
